ChEMBL document CHEMBL4251606, “Design and characterization of α-lipoic acyl shikonin ester twin drugs as tubulin and PDK1 dual inhibitors” (Eur J Med Chem, 2018)
pIC50: −log10 of the molar value. Active and inactive are the calls of the source. No cut-off for these calls is given here.

Assays:
HeLa [1] = assay: Induction of mitochondrial membrane potential loss in human HeLa cells assessed as cells with low membrane potential at 2 uM after 12 hrs by JC-1 staining-based flow cytometric analysis (reference value: 9.31%); assay type: functional
HeLa [2] = assay: Induction of apoptosis in human HeLa cells assessed as necrotic cells at 6 uM after 12 hrs by Annexin V-APC/propidium iodide staining-based FACScan flow cytometric analysis (reference value: 0.725%); assay type: functional
HeLa [3] = assay: Cell cycle arrest in human HeLa cells assessed as accumulation of cells at G1 phase at 8 uM after 24 hrs by propidium iodide staining-based FACScan flow cytometric analysis (reference value: 62.92%); assay type: functional
HeLa [4] = assay: Induction of apoptosis in human HeLa cells assessed as early apoptotic cells at 4 uM after 24 hrs by Annexin V-APC/propidium iodide staining-based FACScan flow cytometric analysis (reference value: 6.46%); assay type: functional
HeLa [5] = assay: Induction of mitochondrial membrane potential loss in human HeLa cells assessed as cells with high membrane potential at 4 uM after 12 hrs by JC-1 staining-based flow cytometric analysis (reference value: 85.8%); assay type: functional
HeLa [6] = assay: Induction of apoptosis in human HeLa cells assessed as viable cells at 6 uM after 36 hrs by Annexin V-APC/propidium iodide staining-based FACScan flow cytometric analysis (reference value: 93%); assay type: functional; conditions: read-out: Activity
HeLa [7] = assay: Antitumor activity against human HeLa cells xenografted in nude mouse assessed as reduction in tumor volume administered intraperitomeally once in every 2 days for 15 days; assay type: functional
HeLa [8] = assay: Induction of apoptosis in human HeLa cells assessed as early apoptotic cells at 1 uM after 24 hrs by Annexin V-APC/propidium iodide staining-based FACScan flow cytometric analysis (reference value: 6.46%); assay type: functional
[9] = molecular target: [Pyruvate dehydrogenase (acetyl-transferring)] kinase isozyme 1, mitochondrial (Homo sapiens) (UniProt Q15118); assay: Inhibition of PDK1 in human HeLa cells assessed as decrease in PDH-E1 alpha p-ser300 expression up to 8 uM by Western blot analysis; assay type: cell-based
HeLa [10] = assay: Induction of apoptosis in human HeLa cells assessed as early apoptotic cells at 6 uM after 36 hrs by Annexin V-APC/propidium iodide staining-based FACScan flow cytometric analysis (reference value: 2.45%); assay type: functional
HeLa [11] = assay: Antitumor activity against human HeLa cells xenografted in nude mouse assessed as reduction in tumor size at 2 mg/kg, ip administered once in every 2 days for 15 days relative to control; assay type: functional
HeLa [12] = assay: Reduction in glucose consumption in human HeLa cells at 2 to 8 uM; assay type: functional, cell-based
[13] = molecular target: [Pyruvate dehydrogenase (acetyl-transferring)] kinase isozyme 1, mitochondrial (Homo sapiens) (UniProt Q15118); assay: Inhibition of PDK1 in human HeLa cells assessed as decrease in PDH-E1 alpha p-ser232 expression at 6 uM by Western blot analysis; assay type: cell-based
HeLa [14] = assay: Induction of apoptosis in human HeLa cells assessed as necrotic cells at 6 uM after 24 hrs by Annexin V-APC/propidium iodide staining-based FACScan flow cytometric analysis (reference value: 0.725%); assay type: functional
[15] = molecular target: [Pyruvate dehydrogenase (acetyl-transferring)] kinase isozyme 1, mitochondrial (Homo sapiens) (UniProt Q15118); assay: Inhibition of PDK1 in human HeLa cells assessed as increase in PDH-E1 alpha expression at 6 uM by Western blot analysis; assay type: cell-based
HeLa [16] = assay: Induction of apoptosis in human HeLa cells assessed as viable cells at 2 uM after 24 hrs by Annexin V-APC/propidium iodide staining-based FACScan flow cytometric analysis (reference value: 85.1%); assay type: functional; conditions: read-out: Activity
A549 = assay: Antiproliferative activity against human A549 cells after 24 hrs by MTT assay; assay type: functional, cell-based; conditions: A549, 24 h
HeLa [17] = assay: Induction of apoptosis in human HeLa cells assessed as increase in cleaved PARP expression up to 8 uM after 24 hrs by Western blot analysis; assay type: functional, cell-based
HeLa [18] = assay: Induction of apoptosis in human HeLa cells assessed as late apoptotic cells by measuring FL3-H+ cells at 0.7 uM after 24 hrs by propidium iodide staining-based FACScan flow cytometric analysis (reference value: 2.14%); assay type: functional
HeLa [19] = assay: Induction of apoptosis in human HeLa cells assessed as late apoptotic cells at 6 uM after 24 hrs by Annexin V-APC/propidium iodide staining-based FACScan flow cytometric analysis (reference value: 3.84%); assay type: functional
HEK-293T = assay: Antiproliferative activity against human 293T cells after 24 hrs by MTT assay; assay type: cell-based
HeLa [20] = assay: Induction of apoptosis in human HeLa cells assessed as late apoptotic cells at 2 uM after 24 hrs by Annexin V-APC/propidium iodide staining-based FACScan flow cytometric analysis (reference value: 7.22%); assay type: functional
HeLa [21] = assay: Cell cycle arrest in human HeLa cells assessed as accumulation of cells at G1 phase at 4 uM after 24 hrs by propidium iodide staining-based FACScan flow cytometric analysis (reference value: 62.92%); assay type: functional
HeLa [22] = assay: Induction of apoptosis in human HeLa cells assessed as late apoptotic cells by measuring FL3-H+ cells at 6 uM after 24 hrs by propidium iodide staining-based FACScan flow cytometric analysis (reference value: 2.13%); assay type: functional
MDA-MB-231 = assay: Antiproliferative activity against human MDA231 cells after 24 hrs by MTT assay; assay type: functional, cell-based; conditions: MDA-MB-231, 24 h
HeLa [23] = assay: Induction of mitochondrial membrane potential loss in human HeLa cells assessed as increase in green fluorescence at 2 to 4 uM by JC-1 staining-based fluorescence microscopic analysis; assay type: functional, cell-based
[24] = molecular target: [Pyruvate dehydrogenase (acetyl-transferring)] kinase isozyme 1, mitochondrial (Homo sapiens) (UniProt Q15118); assay: Inhibition of PDK1 in human HeLa cells assessed as decrease in PDH-E1 alpha p-ser300 expression at 6 uM by Western blot analysis; assay type: cell-based
HeLa [25] = assay: Cell cycle arrest in human HeLa cells assessed as accumulation of cells at G2/M phase at 4 uM after 24 hrs by propidium iodide staining-based FACScan flow cytometric analysis (reference value: 16.82%); assay type: functional
HeLa [26] = assay: Induction of mitochondrial membrane potential loss in human HeLa cells assessed as cells with high membrane potential at 2 uM after 12 hrs by JC-1 staining-based flow cytometric analysis (reference value: 85.8%); assay type: functional
Mus musculus = assay: Inhibition of PDK1 in mouse xenografted with human HeLa cells assessed as upregulation of PDH-E1 alpha expression in tumor tissue at 1 to 2 mg/kg, ip administered once in every 2 days for 15 days by immunohistochemistry; assay type: functional, organism-based
[27] = molecular target: [Pyruvate dehydrogenase (acetyl-transferring)] kinase isozyme 1, mitochondrial (Homo sapiens) (UniProt Q15118); assay: Inhibition of PDK1 in human HeLa cells assessed as increase in PDH-E1 alpha expression up to 8 uM by Western blot analysis; assay type: cell-based
HeLa [28] = assay: Induction of apoptosis in human HeLa cells assessed as necrotic cells at 4 uM after 24 hrs by Annexin V-APC/propidium iodide staining-based FACScan flow cytometric analysis (reference value: 1.18%); assay type: functional
HeLa [29] = assay: Induction of apoptosis in human HeLa cells assessed as decrease in Bcl2 expression up to 8 uM after 24 hrs by Western blot analysis; assay type: functional, cell-based
HeLa [30] = assay: Induction of mitochondrial membrane potential loss in human HeLa cells assessed as cells with low membrane potential at 4 uM after 12 hrs by JC-1 staining-based flow cytometric analysis (reference value: 9.31%); assay type: functional
HeLa [31] = assay: Induction of apoptosis in human HeLa cells assessed as late apoptotic cells by measuring FL3-H+ cells at 2.8 uM after 24 hrs by propidium iodide staining-based FACScan flow cytometric analysis (reference value: 2.14%); assay type: functional

In the case of `CC(C)=CC[C@@H](OC(=O)CCCC[C@@H]1CCSC(c2ccccc2)S1)C1=CC(=O)c2c(O)ccc(O)c2C1=O` (stereo not given in full), the Activity (HeLa [1]) was 53%, the Activity (HeLa [2]) was 2.31% and the Activity (HeLa [3]) was 15.42%. The Activity (HeLa [4]) was 6.67%, the Activity (HeLa [5]) was 10.3% and the viability at 6 µM (HeLa [6]) was 26.4%. For the same compound, the Activity (HeLa [7]) was “Dose-dependent effect”, the Activity (HeLa [8]) was 15.8% and the inhibition [9] was “Active”. The Activity (HeLa [10]) was 45.7%, the “fold change (FC)” value (HeLa [11]) was 5 and the Activity (HeLa [12]) was “Active”. The inhibition [13] was “Active”, the Activity (HeLa [14]) was 10% and the inhibition [15] was “Active”. The viability at 2 µM (HeLa [16]) was 23.6%, the pIC50 (A549) was 4.79 and the Activity (HeLa [17]) was “Active”. For the same compound, the Activity (HeLa [18]) was 6.4%, the Activity (HeLa [19]) was 34.8% and the pIC50 (HEK-293T) was 4.05. For the same compound, the Activity (HeLa [20]) was 48.9%, the Activity (HeLa [21]) was 25.74% and the Activity (HeLa [22]) was 43.5%. For the same compound, the pIC50 (MDA-MB-231) was 4.75, the Activity (HeLa [23]) was “Active” and the inhibition [24] was “Active”. The Activity (HeLa [25]) was 45.2%, the Activity (HeLa [26]) was 42.1% and the Activity (Mus musculus) was “Active”. The inhibition [27] was “Active”, the Activity (HeLa [28]) was 16.9% and the Activity (HeLa [29]) was “Active”. The Activity (HeLa [30]) was 82.2% and the Activity (HeLa [31]) was 37.5%.
